{"source": "patent US20050238724A1", "about": "“Pharmaceutical composition containing lamotrigine particles of defined morphology” (Teva Pharmaceutical Industries Ltd., priority 2002, published 2005)", "key": {"[1]": {"assay": "Particle diameter by laser diffraction (Malvern Mastersizer)", "type": "physicochemical", "experimental": "The “particle diameter” refers to the equivalent spherical diameter as determined by laser light scattering method. Particle diameter of lamotrigine was determined by laser diffraction. We determined the diameter of lamotrigine particles using a Malvern™ Mastersizer laser diffraction instrument. Samples of lamotrigine were suspended in hexane containing a surfactant (0.07% dioctyl sulfosuccinate sodium salt). The suspensions were mixed and then sonicated for 15 seconds to thoroughly disperse the lamotrigine particles. The dispersion was then recirculated in the flow cell of the Malvern Mastersizer for two minutes before particle diameter measurements were taken."}, "[2]": {"assay": "Specific surface area by gas adsorption, multipoint BET (Coulter SA3100)", "type": "physicochemical", "details": "micronized particles; degassing 70° C., 30 minutes; 10 points", "excerpt": "Gas adsorption analysis is a preferred method for determining the surface area of a sample of lamotrigine for purposes of this invention since it provides a direct measurement of surface area. It is therefore considered to be more accurate than other methods such as electron microscopy and laser diffraction that rely upon a model to obtain a value for surface area (e.g. equivalent sphere model).\nWe measured specific particle surface area by gas adsorption using a Coulter™ SA3100 Series adsorption analyzer. The specific surface area of a sample of lamotrigine particles was calculated by the multipoint Brunauer, Emmet and Teller (BET) method. Brunauer, S., P. H. Emmett, E. Teller, J. Am. Chem. Soc., 1938, 60, 309-319. The calculations of the surface area of lamotrigine particles and its precise weight would yield specific surface area (usually expressed as square meters/gram). […] The volume of the manifold was measured with helium gas using a conventional technique. […] The instrument's software calculated the moles of adsorbed N2 (based upon inputted sample mass, manifold volume and sample tube void volume) for ten equilibrium pressures (Ps). […]\nThe specific surface area of the lamotrigine particles was measured with a Coulter SA 3100, using the multipoint BET technique. […] For the linearity, 10 points were measured, using high sensitivity."}, "[3]": {"details": "initial particles before air jet milling"}}}
{"smiles": "Nc1nnc(-c2cccc(Cl)c2Cl)c(N)n1", "note": "[Lamotrigine, 3,5-diamino-6-(2,3-dichlorophenyl)-1,2,4-triazine]", "values": [{"measurement": "particle diameter, 50% of the particles equal to or less than", "setting": "[1]; [3]", "result": "≤ 250", "unit": "μm"}, {"measurement": "particle diameter, about 80% of the particles equal to or less than", "setting": "[1]; [3]", "result": "≤ 500", "unit": "μm"}]}
{"smiles": "Nc1nnc(-c2cccc(Cl)c2Cl)c(N)n1", "note": "[lamotrigine micronized particles, 3,5-diamino-6-(2,3-dichlorophenyl)-1,2,4-triazine]", "values": [{"measurement": "diameter of all particles in the plurality", "setting": "[1]; after micronization in air jet mill", "result": "less than 100 μm"}, {"measurement": "specific surface area", "setting": "[2]", "result": "3.1-3.3 square meters per gram"}]}
